Source: ChEMBL document CHEMBL5113527, “First-in-Class Hydrazide-Based HDAC6 Selective Inhibitor with Potent Oral Anti-Inflammatory Activity by Attenuating NLRP3 Inflammasome Activation” (J Med Chem, 2022)
pIC50, pKi: −log10 of the molar value. Activity calls are given as the source filed them. The rule behind the calls is not given here.

How the values were obtained:
[1] = Ratio of drug concentration in brain to plasma of CD-1 mouse measured after 2 hrs by LC-MS/MS analysis; assay type: ADME; conditions: read-out: BPR
Histone deacetylase 3 = Histone deacetylase 3 (Homo sapiens, UniProt O15379); test: Inhibition of recombinant HDAC3 (unknown origin) using Boc-Lys(acetyl)-AMC as substrate preincubated for 1 hr followed by substrate addition and measured after 2 hrs by fluorescence based microplate reader analysis
Sequence of Histone deacetylase 3 (O15379 whole entry): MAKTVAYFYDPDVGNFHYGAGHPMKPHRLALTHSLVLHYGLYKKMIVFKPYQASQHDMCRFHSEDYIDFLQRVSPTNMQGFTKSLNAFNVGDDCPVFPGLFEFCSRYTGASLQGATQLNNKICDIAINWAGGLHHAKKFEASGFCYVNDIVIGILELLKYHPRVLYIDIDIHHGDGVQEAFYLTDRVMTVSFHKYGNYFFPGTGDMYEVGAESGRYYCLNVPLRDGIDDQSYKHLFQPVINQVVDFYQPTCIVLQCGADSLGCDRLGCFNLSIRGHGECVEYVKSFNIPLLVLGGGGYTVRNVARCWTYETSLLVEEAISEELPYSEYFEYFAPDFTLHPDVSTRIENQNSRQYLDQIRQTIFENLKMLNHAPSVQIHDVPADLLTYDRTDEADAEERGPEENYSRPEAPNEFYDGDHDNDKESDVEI

Histone deacetylase 1 [2] = target: T1, Histone deacetylase 1 (Homo sapiens, UniProt Q13547); test: Binding affinity to recombinant HDAC1 (unknown origin) assessed as inhibition constant using Boc-Lys(acetyl)-AMC as substrate preincubated for 1 hr followed by substrate addition and measured after 2 hrs by fluorescence based microplate reader analysis
T1 sequence (Q13547 whole entry): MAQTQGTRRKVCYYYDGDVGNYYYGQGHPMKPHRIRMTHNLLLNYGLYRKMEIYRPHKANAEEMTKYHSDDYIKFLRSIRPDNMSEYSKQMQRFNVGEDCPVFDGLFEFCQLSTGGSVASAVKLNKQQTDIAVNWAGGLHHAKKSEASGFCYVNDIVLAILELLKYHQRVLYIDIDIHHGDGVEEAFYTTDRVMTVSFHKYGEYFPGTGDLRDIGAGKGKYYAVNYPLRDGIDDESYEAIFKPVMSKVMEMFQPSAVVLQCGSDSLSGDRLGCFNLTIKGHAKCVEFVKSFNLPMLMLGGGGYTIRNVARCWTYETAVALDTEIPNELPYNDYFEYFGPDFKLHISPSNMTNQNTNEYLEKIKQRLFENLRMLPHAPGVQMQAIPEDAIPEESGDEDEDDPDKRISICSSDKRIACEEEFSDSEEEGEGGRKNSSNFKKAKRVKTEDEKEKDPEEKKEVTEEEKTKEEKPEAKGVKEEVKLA

[3] = Cmax in CD-1 mouse at 20 mg/kg, po measured after 0.083 to 24 hrs by LC-MS/MS analysis; assay type: ADME, organism-based; design: time 0.083-24 hrs, dose 20 mg/kg, route po; conditions: in vivo
[4] = Plasma concentration in CD-1 mouse at 20 mg/kg measured after 1 hrs by LC-MS/MS analysis; assay type: ADME, organism-based
[5] = Cmax in CD-1 mouse at 5 mg/kg, iv measured after 0.083 to 24 hrs by LC-MS/MS analysis; assay type: ADME, organism-based; design: dose 5 mg/kg, time 0.083-24 hrs, route iv; conditions: in vivo
Histone deacetylase 7 = target: T2, Histone deacetylase 7 (Homo sapiens, UniProt Q8WUI4); test: Inhibition of recombinant HDAC7 (unknown origin) using Boc-Lys (trifluoroacetyl) AMC as substrate preincubated for 1 hr followed by substrate addition and measured after 2 hrs by fluorescence based microplate reader analysis
T2 sequence (Q8WUI4 whole entry): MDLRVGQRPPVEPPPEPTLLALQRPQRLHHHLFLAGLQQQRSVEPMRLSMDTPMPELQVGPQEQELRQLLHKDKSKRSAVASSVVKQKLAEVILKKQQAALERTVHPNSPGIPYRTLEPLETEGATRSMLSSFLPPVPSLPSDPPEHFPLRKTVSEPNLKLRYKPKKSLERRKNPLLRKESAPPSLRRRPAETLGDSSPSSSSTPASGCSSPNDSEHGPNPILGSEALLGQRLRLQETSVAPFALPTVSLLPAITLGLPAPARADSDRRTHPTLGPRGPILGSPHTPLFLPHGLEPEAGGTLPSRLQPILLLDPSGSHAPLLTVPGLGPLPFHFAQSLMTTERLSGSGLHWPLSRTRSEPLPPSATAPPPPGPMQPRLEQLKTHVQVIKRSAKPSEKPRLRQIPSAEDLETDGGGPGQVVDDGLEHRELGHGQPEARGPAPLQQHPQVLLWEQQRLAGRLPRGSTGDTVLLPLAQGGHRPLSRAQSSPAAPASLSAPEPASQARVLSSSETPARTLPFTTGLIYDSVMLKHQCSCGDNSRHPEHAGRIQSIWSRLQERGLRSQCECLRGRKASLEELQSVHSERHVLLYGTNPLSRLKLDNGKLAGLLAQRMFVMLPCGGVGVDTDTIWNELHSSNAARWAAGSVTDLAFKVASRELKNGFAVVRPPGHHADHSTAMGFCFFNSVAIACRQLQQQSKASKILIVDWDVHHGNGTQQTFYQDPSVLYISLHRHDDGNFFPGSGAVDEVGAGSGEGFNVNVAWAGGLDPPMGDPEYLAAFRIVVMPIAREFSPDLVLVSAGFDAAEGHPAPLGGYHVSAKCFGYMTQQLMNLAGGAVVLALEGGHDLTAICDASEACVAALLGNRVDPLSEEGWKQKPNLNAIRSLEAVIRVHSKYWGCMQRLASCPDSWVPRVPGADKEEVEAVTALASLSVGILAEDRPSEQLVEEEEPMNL

Mus musculus = test: Inhibition of LPS-induced endotoxic shock in C57BL/6 mouse model serum assessed as decrease in IL-1beta level at 10 mg/kg, ip pretreated for 1 hr followed by LPS addition measured after 12 hrs; assay type: functional, organism-based; conditions: time 13.0 hrs
J774.A1 = test: Antiinflammatory activity against LPS primed mouse J774.A1 cells assessed suppression of LPS/ATP induced IL-beta release preincubated for 30 mins followed by ATP stimulation measured after 30 mins by ELISA; assay type: functional, cell-based
Histone deacetylase 5 = Histone deacetylase 5 (Homo sapiens, UniProt Q9UQL6); test: Inhibition of recombinant HDAC5 (unknown origin) using Boc-Lys (trifluoroacetyl) AMC as substrate preincubated for 1 hr followed by substrate addition and measured after 2 hrs by fluorescence based microplate reader analysis
Sequence of Histone deacetylase 5 (Q9UQL6 whole entry): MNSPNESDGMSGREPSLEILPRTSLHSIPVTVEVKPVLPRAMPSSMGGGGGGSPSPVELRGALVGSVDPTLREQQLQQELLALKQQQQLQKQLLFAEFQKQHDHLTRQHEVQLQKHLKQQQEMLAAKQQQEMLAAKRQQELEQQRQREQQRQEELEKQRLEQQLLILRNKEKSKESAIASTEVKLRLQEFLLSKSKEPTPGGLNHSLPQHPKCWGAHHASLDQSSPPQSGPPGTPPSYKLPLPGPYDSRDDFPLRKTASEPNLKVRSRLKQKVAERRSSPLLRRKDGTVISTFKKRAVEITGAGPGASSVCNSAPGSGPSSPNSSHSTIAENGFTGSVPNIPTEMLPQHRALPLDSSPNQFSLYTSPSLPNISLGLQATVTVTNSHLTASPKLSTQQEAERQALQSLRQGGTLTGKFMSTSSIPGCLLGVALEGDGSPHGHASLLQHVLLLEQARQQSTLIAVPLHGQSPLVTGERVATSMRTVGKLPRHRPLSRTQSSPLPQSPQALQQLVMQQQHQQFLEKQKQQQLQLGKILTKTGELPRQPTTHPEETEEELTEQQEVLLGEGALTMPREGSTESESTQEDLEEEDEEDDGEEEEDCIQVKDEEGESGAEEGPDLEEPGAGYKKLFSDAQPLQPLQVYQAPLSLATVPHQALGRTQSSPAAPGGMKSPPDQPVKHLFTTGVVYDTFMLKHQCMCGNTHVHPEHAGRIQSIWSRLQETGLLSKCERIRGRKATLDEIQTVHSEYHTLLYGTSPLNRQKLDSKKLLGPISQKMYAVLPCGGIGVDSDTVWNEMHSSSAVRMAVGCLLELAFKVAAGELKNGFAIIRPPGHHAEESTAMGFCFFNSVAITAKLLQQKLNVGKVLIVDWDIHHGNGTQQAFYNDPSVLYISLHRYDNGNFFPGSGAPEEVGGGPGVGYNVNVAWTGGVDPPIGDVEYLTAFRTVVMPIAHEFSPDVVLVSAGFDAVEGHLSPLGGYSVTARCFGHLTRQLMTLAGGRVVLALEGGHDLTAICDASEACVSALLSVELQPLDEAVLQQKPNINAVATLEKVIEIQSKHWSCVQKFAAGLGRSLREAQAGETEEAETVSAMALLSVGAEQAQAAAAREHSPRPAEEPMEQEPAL

Histone deacetylase 1 [6] = target: T1, Histone deacetylase 1; test: Inhibition of recombinant HDAC1 (unknown origin) using Boc-Lys(acetyl)-AMC as substrate preincubated for 1 hr followed by substrate addition and measured after 2 hrs by fluorescence based microplate reader analysis

SMILES: CCNNC(=O)c1ccc(CN2c3ccccc3C=Cc3ccncc32)cc1
- Kp at 2 h [1]: 1.42
- pIC50 (Histone deacetylase 3): 5.99
- pKi (Histone deacetylase 1 [2]): 6.06
- Cmax [3]: 5.57 µg/mL
- concentration at 1 h [4]: 5.88 µg/mL
- Cmax [5]: 4.6 µg/mL
- pIC50 (Histone deacetylase 7): < 5.30
- Activity (Mus musculus): Active
- pIC50 (J774.A1): 5.58
- pIC50 (Histone deacetylase 5): < 5.30
- pIC50 (Histone deacetylase 1 [6]): 5.82
